Assay results: ChEMBL document CHEMBL1201862, “PubChem BioAssay data set” (2004)
One block for each compound: values may come before it. The source made the active and inactive calls.

Assays:
[1] = target: Latent membrane protein 1 (Human herpesvirus 4 (strain B95-8), UniProt P03230); test: LMP1 TES1 pathway selectivity over dsRED control – imaging, HEK293T, dual-color eGFP/dsRED, cherry-picks, selectivity assay for LMP1 NF-kB inhibitor project, dose response (AID 588398); type: functional, cell-based
Sequence of Latent membrane protein 1 (P03230 whole entry): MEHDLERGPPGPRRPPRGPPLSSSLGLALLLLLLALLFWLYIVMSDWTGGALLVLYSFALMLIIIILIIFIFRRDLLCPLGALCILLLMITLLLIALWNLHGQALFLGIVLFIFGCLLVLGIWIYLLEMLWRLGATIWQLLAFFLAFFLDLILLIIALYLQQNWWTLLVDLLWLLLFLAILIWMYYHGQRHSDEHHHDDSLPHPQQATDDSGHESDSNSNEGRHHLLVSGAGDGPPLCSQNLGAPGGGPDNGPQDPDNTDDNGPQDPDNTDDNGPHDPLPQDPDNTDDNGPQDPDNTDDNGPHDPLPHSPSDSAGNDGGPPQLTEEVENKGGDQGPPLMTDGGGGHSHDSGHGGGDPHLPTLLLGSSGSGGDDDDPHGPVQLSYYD

A-375 = test: MITF: Counter assay: A375 proliferation Measured in Cell-Based System Using Plate Reader - 2084-03_Inhibitor_Dose_DryPowder_Activity. [Related pubchem assays (depositor defined):AID488944]; type: functional; details: Homo sapiens
[2] = viability of PTEN-deleted HCT116 cells – cell-based, HCT116 PTEN knockout, dose response (AID 1047); type: functional;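 note: HCT116 colon tumor cells with PTEN knocked out; cells exposed to compound for 60 hours before readout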
CHO = CHO cell viability loss, potency – luminescence, cytotoxicity control for TLR9-MyD88 binding inhibitor project, dose response (AID 588339); type: functional, cell-based, hamster; details: Cricetulus griseus;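 note: CHO cells stably coexpressing TLR9 and MyD88 fusions from primary screen; compound exposure lasted 48 hours before viability readout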
[3] = target: T1, Microphthalmia-associated transcription factor (Homo sapiens, UniProt O75030); test: reducers of TRPM1 reporter luminescence, concentration series – cell-based, SK-MEL-5, cherry-picked, set 3, MITF inhibitor project, dose response (AID 493073); type: functional;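 note: SK-MEL-5 melanoma cells with luciferase driven by the MITF target TRPM1 promoter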
T1 sequence (O75030 whole entry): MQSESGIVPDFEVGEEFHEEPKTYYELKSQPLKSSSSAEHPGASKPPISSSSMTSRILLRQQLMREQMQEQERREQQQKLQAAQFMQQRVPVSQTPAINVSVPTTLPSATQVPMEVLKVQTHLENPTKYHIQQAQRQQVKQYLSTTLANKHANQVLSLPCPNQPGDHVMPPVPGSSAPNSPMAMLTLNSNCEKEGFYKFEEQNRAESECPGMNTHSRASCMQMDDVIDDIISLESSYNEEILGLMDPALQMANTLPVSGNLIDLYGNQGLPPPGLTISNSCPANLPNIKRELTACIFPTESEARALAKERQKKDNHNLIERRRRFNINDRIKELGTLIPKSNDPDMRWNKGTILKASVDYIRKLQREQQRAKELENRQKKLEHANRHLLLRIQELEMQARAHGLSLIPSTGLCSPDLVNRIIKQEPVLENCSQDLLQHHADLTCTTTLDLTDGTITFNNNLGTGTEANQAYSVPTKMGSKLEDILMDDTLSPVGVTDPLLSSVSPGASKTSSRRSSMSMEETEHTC

[4] = viability of HCT116 lacking mutant beta-catenin – cell-based, human colon tumor, dose response (AID 1045); type: functional;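 note: HCT116 colon tumor cells with beta catenin knocked out; cells exposed to compound for 60 hours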
[5] = target: Multidrug resistance protein CDR1 (Candida albicans, UniProt P43071); test: inhibition of Nile Red efflux via Candida CDR1 – S. cerevisiae AD1-8u, singleplex, Cherry Pick1 hits, dose response (AID 588606); type: functional
Sequence of Multidrug resistance protein CDR1 (P43071 whole entry, looked up): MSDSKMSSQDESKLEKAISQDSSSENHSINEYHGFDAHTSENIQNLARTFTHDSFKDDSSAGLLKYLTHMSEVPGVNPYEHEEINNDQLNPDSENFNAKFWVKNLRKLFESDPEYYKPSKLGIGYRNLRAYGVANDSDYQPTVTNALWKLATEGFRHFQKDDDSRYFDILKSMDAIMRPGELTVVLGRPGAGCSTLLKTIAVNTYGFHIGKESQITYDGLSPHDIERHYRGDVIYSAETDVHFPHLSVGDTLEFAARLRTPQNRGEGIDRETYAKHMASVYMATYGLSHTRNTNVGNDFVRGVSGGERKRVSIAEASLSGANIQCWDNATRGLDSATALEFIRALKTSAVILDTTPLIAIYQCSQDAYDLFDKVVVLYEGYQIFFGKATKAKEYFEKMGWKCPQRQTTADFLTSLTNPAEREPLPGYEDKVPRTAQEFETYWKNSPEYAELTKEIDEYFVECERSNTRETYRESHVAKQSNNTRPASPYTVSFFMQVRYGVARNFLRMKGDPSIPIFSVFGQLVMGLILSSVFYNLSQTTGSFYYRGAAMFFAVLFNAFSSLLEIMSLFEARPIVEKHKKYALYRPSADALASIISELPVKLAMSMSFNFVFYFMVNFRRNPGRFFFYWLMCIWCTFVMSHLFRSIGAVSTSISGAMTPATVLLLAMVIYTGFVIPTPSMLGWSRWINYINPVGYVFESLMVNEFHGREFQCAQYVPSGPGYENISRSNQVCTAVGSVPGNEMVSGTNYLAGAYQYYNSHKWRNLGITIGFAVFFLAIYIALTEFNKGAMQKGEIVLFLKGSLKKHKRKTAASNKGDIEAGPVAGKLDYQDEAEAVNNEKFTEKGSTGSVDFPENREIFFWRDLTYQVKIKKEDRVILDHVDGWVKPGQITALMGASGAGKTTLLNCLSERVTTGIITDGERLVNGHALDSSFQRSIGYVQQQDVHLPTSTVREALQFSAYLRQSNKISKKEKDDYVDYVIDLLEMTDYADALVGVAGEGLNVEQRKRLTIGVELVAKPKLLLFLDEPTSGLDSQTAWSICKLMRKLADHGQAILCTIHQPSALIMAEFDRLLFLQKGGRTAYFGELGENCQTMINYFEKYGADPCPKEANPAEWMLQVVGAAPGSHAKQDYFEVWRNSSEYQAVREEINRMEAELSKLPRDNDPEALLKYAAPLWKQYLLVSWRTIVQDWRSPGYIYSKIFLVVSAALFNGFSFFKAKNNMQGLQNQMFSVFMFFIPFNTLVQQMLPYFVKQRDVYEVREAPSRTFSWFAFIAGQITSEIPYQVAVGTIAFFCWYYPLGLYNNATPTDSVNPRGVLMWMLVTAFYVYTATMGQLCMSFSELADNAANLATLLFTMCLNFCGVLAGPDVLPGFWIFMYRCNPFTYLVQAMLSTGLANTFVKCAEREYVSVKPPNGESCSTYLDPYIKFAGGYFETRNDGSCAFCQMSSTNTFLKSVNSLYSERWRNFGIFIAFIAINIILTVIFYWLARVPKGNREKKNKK

[6] = target: Benomyl/methotrexate resistance protein (Candida albicans, UniProt P28873); test: Candida albicans Mdr1 pump inhibition curves – singleplex, Cherry Pick1 hits, dose response (AID 588608); type: functional
Sequence of Benomyl/methotrexate resistance protein (P28873 whole entry, the tested form may be a part): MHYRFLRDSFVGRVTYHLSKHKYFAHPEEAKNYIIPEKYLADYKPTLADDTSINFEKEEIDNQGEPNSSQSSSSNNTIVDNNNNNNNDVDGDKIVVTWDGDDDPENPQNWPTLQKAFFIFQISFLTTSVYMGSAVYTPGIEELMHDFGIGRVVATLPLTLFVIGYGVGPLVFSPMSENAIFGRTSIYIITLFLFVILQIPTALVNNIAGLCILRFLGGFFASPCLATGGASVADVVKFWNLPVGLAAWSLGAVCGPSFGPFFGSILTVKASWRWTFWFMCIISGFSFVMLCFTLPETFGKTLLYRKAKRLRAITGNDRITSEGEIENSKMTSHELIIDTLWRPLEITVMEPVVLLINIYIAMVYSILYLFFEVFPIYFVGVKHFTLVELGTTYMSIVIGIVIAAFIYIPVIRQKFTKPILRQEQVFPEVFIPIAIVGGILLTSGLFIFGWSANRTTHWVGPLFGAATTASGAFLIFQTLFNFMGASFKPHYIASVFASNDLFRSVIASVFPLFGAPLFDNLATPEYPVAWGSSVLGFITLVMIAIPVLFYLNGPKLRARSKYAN

Hexokinase-1 = target: T2, Hexokinase-1 (Homo sapiens, UniProt P19367); test: SAR analysis of small molecule inhibitors of hexokinase domain containing I (HKDC1) in the hexokinase 1 selectivity assay. [Related pubchem assays (depositor defined):AID493160, AID493190]; type: functional
T2 sequence (P19367 whole entry): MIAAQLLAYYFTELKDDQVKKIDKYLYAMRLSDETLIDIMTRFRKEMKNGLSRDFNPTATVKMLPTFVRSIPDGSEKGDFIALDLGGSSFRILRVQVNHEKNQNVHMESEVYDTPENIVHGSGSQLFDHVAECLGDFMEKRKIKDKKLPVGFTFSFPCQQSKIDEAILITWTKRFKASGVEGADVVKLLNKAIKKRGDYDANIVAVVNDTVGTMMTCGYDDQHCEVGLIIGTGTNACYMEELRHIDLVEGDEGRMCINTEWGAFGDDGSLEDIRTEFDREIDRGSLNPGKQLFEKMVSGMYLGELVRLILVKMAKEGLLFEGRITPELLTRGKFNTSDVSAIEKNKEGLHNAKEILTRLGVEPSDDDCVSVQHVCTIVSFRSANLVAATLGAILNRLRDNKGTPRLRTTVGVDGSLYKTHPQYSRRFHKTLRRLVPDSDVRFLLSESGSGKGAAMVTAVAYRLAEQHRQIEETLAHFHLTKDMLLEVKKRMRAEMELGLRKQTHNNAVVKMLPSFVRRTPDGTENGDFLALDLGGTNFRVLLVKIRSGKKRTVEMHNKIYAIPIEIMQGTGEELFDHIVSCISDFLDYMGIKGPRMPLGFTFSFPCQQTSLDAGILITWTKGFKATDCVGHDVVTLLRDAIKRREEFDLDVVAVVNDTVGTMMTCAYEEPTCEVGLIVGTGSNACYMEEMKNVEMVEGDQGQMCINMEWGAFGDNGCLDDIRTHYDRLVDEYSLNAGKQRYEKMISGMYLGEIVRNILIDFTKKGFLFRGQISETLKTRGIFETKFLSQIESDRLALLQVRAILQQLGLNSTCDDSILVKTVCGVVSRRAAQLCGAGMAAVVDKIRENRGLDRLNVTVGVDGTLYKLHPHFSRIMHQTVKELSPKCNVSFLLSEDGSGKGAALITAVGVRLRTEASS

Hexokinase HKDC1 = target: T3, Hexokinase HKDC1 (Homo sapiens, UniProt Q2TB90); test: SAR analysis of small molecule inhibitors of hexokinase domain containing I (HKDC1). [Related pubchem assays (depositor defined):AID493160, AID493190]; type: functional
T3 sequence (Q2TB90 whole entry): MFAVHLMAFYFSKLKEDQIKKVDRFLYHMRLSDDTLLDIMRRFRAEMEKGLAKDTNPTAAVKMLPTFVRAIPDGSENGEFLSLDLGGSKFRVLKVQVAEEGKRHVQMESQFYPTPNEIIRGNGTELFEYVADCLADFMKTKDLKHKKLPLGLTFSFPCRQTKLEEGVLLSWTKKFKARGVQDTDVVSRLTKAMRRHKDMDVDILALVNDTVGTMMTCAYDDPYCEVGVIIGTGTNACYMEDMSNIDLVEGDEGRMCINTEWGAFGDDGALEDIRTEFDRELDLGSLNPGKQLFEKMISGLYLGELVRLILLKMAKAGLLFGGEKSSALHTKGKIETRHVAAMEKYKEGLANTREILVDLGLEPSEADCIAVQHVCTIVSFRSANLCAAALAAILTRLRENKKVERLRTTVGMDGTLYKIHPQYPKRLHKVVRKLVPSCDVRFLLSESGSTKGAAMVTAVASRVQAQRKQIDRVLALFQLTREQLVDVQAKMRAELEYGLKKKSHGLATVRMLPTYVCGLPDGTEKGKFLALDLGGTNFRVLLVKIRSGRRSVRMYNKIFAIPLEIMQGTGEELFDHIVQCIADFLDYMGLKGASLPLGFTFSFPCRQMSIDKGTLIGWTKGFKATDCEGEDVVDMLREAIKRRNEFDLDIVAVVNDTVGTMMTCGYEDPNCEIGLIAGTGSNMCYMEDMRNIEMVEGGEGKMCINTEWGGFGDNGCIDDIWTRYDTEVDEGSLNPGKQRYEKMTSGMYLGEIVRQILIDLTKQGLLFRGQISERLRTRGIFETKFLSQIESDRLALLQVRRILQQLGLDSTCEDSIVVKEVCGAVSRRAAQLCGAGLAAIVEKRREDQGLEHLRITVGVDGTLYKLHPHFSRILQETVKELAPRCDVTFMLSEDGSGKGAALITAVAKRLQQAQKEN

INS1 [7] = test: beta-cell survival under cytokine stress – INS-1E, ATP luminescence, dry powder, dose response (AID 488844); type: functional, cell-based; details: Rattus norvegicus
INS1 [8] = test: suppression of NO production in INS-1E cells – cell-based, Griess absorbance, dry powder, set 2, dose response (AID 488868); type: functional; details: Rattus norvegicus
[9] = suppression of NO production in INS-1E cells – cell-based, Griess absorbance, dry powder, set 3, dose response (AID 488870); type: functional; details: Rattus norvegicus
Aurora kinase A = target: T4, Aurora kinase A (Homo sapiens, UniProt O14965); type: functional;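 note: value from the Navigating the Kinome kinase panel profiling, panel entry STK6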
T4 sequence (O14965 whole entry): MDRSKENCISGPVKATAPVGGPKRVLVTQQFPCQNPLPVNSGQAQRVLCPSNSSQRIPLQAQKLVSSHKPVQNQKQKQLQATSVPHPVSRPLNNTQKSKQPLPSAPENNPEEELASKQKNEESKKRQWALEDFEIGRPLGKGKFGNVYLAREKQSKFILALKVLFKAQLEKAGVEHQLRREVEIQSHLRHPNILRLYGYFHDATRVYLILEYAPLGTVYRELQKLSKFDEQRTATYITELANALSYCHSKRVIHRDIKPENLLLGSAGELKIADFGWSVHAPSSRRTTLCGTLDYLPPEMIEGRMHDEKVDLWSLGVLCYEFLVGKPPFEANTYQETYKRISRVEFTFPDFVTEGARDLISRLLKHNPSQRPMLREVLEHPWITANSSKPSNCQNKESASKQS

[10] = target: Vascular endothelial growth factor receptor 2 (Homo sapiens, UniProt P35968); type: functional
Sequence of Vascular endothelial growth factor receptor 2 (P35968 whole entry): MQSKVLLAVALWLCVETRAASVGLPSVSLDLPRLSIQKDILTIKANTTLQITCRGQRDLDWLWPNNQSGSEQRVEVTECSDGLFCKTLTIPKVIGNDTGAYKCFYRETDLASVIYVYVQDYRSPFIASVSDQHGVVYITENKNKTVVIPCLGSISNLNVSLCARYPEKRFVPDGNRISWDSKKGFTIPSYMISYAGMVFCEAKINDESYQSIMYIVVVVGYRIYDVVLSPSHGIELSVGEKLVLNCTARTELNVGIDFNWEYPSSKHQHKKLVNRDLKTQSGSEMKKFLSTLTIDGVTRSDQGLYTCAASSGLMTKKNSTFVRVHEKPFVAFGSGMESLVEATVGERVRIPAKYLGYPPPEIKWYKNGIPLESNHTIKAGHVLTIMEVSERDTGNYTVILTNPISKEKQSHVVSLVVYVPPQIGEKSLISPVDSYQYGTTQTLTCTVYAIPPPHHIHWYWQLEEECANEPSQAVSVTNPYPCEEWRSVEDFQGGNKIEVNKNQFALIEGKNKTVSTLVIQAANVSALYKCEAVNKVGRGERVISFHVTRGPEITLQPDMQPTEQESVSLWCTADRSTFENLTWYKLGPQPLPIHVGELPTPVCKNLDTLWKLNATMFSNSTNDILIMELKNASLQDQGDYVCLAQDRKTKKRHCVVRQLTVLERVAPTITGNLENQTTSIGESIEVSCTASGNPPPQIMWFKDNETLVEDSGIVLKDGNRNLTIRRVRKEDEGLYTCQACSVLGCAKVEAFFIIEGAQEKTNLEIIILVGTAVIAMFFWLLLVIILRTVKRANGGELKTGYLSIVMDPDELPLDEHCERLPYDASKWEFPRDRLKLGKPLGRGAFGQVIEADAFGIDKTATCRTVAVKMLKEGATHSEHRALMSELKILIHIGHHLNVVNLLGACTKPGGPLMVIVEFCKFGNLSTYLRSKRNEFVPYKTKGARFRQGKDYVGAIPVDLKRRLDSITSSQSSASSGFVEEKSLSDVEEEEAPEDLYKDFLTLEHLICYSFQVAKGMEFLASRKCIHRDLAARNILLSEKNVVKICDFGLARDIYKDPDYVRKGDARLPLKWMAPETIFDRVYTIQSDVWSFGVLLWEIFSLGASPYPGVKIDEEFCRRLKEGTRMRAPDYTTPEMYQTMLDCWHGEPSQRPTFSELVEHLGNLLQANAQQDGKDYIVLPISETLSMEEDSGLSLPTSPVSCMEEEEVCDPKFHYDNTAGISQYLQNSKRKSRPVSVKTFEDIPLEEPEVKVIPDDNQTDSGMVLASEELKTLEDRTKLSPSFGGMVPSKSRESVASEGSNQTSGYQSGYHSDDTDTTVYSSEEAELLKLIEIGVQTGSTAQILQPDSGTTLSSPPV

Aurora kinase B = Aurora kinase B (Homo sapiens, UniProt Q96GD4); type: functional
Sequence of Aurora kinase B (Q96GD4 whole entry): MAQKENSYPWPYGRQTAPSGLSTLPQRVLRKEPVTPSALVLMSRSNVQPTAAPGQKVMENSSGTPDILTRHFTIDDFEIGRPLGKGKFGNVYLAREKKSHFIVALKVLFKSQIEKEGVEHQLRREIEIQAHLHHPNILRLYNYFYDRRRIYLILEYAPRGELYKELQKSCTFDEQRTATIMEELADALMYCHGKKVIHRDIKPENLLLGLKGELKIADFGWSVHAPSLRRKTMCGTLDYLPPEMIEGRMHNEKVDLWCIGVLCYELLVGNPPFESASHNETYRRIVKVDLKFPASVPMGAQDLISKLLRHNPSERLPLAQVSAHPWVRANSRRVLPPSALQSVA

[11] = target: Melanin-concentrating hormone receptor 1 (Homo sapiens, UniProt Q99705); test: Late-stage fluorescence-based counterscreen for antagonists of the G-protein coupled receptor 7 (GPR7): cell-based dose response assay to identify antagonists of the melanin-concentrating hormone receptor 1 (MCHR1) Set 5.; type: functional
Sequence of Melanin-concentrating hormone receptor 1 (Q99705 whole entry): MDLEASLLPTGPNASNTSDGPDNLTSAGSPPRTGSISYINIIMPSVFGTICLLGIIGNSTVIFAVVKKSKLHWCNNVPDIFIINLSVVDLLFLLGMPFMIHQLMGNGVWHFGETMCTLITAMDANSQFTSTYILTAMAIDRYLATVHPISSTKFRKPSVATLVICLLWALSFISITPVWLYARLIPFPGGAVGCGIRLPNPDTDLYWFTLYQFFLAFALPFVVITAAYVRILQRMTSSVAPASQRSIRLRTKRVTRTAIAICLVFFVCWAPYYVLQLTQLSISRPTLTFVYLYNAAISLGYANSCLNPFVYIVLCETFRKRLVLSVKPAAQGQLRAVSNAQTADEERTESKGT

HEK293 = test: EBV LMP1 TES2 canonical NF-kB signalling blockers – cell-based, HEK293, luciferase, cherry-pick, dose response (AID 588343); type: functional; details: Homo sapiens

AC50 [1]: 53.1 µM (active)
Structure (SMILES): COCCN1Cc2cccc(C(=O)N3CCN(c4cc(C)ccc4C)CC3)c2C1=O

Structure (SMILES): CCCCN(C)CC(O)Cn1cc(/C=C/C(=O)c2cccs2)c2ccccc21 (stereo unspecified)
AC50 (A-375): 40.9 µM (active)
EC50 [2]: 13.4 µM (active)
IC50 (CHO): 14.9 µM (inactive)
AC50 [3]: 14.3 µM (active)
EC50 [4]: 10.5 µM (active)

Structure (SMILES): COc1ccc2sc(-c3ccccc3OC)c(-c3ccc(OCCN4CCOCC4)cc3)c2c1
EC50 [5]: 10 µM (active)
EC50 [6]: 10.6 µM (active)

IC50 (Hexokinase-1): > 80 µM (inactive)
IC50 (Hexokinase HKDC1): > 80 µM (inactive)
Structure (SMILES): O=c1c2ccccc2nc(/C=C\c2ccccc2Cl)n1Cc1ccccc1

IC50 (Hexokinase-1): 65.3 µM (inactive)
IC50 (Hexokinase HKDC1): 9.86 µM (active)
Structure (SMILES): O=S(=O)(Nc1cc(Sc2nc[nH]n2)c(O)c2ccccc12)c1ccc(Cl)cc1

Structure (SMILES): C[C@@H]1CN([C@@H](C)CO)C(=O)c2cccc(NC(=O)Nc3cccc4ccccc34)c2O[C@H]1CN(C)S(=O)(=O)c1ccc(F)cc1
AC50 (INS1 [7]): 7.41 µM (active)
AC50 (INS1 [8]): 138 µM (active)
AC50 [9]: 77.2 µM (active)

Ki (Aurora kinase A): 1.58 µM (active)
Ki [10]: > 5.01 µM (inactive)
Ki (Aurora kinase B): 0.0158 µM (active)
Structure (SMILES): CC(C)CC(CO)NC(=O)C=Cc1cnc(N)c2ccccc12 (stereo unspecified)

IC50 [11]: 17.9 µM (inactive)
Structure (SMILES): O=c1c(Oc2ccc3c(c2)CCC3)c(Cl)cnn1Cc1cccc2ccccc12

Structure (SMILES): COc1cc([C@@H]2c3cc4c(cc3[C@@H](O[C@@H]3O[C@@H]5CO[C@@H](C)O[C@H]5[C@H](O)[C@H]3O)[C@H]3COC(=O)[C@H]23)OCO4)cc(OC)c1O [ETOPOSIDE]
AC50 [1]: 0.4 µM (active)
AC50 (HEK293): 0.784 µM (active)
